# Where two headings read alike, the source gives them in different places.
# Key:
# [1] = In vitro metabolic stability in human plasma; assay type: in vitro ADME; details: human, plasma, 37° C., 10 μM compound, read-out: Human plasma T1/2
# Summary of the method: (§1)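 Human or rat plasma, preincubated 5 min at 37 °C, or intestinal S9 at 37 °C, spiked from 1 mM stock; triplicates sampled at 1, 2, 5, 15 and 30 min into cold internal standard. HPLC quantitation; half-life by non-compartmental analysis.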
# [2] = In vitro metabolic stability in human intestine S9; assay type: in vitro ADME; details: human, intestinal S9; 37° C., 10 μM compound, 1 mg/mL S9, NADPH regeneration system; read-out: Human intestine S9 T1/2
# Summary of the method: as §1
# [3] = In vitro metabolic stability in rat plasma; assay type: in vitro ADME; details: rat, plasma, 37° C., 10 μM compound, read-out: Rat plasma T1/2
# Summary of the method: as §1
# [4] = In vitro metabolic stability in rat intestine S9; assay type: in vitro ADME; details: rat, intestinal S9, pH 7.4; 37° C., 10 μM compound, 1 mg/mL S9, NADPH regeneration system; read-out: Rat intestine S9 T1/2
# Summary of the method: as §1
# [5] = Solid stability test (stability chamber, HPLC total impurity); assay type: physicochemical
# [6] = system: Candida albicans ATCC10231; assay: Candida albicans vaginitis in mice, intragastric administration; assay type: in vivo, KM mice; details: logarithm of the CFU values, mean ± SD of 20 mice, 20 mg/kg intragastric once a day
# [7] = system: Candida albicans ATCC10231; assay: Systemic fungal infection in mice, intravenous administration; assay type: in vivo, ICR mice
# [8] = system: Candida albicans ATCC10231; assay: Systemic fungal infection in mice, intragastric administration; assay type: in vivo, ICR mice; details: Candida albicans, ATCC10231, po
# [9] = system: Aspergillus Fumigutus (AF) strains; assay: Aspergillus fumigatus keratitis in rats, intravenous administration; details: 10 mg/kg tail vein once daily for 5 days; mean ± SD of 10 rats
# [10] = Determination of solubility in deionized water (HPLC, external standard); details: 25 °C, water, thermodynamic from solid
# [11] = system: Aspergillus fumigatus AF293; assay: Lung Aspergillus fumigatus infection in immunosuppressed mice, intravenous administration; details: for responders at 20 mg/kg: Aspergillus fumigatus, AF293, in Mus musculus, iv
# Protocol: ICR male mice were injected intraperitoneally with cyclophosphamide 150 mg/kg and injected subcutaneously with dexamethasone 150 mg/kg for 10 consecutive days. At the same time, the blood was taken to measure the changes of peripheral white blood cells and neutrophils, and mice with neutrophils consistently lower than 100/μl were selected as successfully immunosuppressed mice. Immediately after the last injection, the mice were anesthetized with ethyl ether, and mice were transferred from the initial state of excitement to inhibition. After their bodies were relaxed, the mice were immediately taken. Left hand was used to grasp the mouse to make it stand upright, the middle finger pressed the mouth so that it could breath only with the nose, and the ring finger gently pressed the abdomen to move the diaphragm muscle upward. 30 μl of conidia suspension (Aspergillus fumigatus AF293, 3×10^6 conidia) was sent to the nostrils of the anesthetized mice by a micropipette to allow spontaneous inhalation. After the mouse returned to normal breathing, it was returned to the cage. […] The death of the mice was observed and the survival time was recorded. Seven days later, the mice were sacrificed and their lung tissues were taken to observe the fungal loads of Aspergillus fumigatus in the lungs of the mice.
compound,measurement,setting,value
CC[C@@H]([C@H](C)O)n1ncn(-c2ccc(N3CCN(c4ccc(OC[C@@H]5CO[C@@](Cn6c[n+](C(C)OC(=O)N(C)c7ncccc7COC(=O)CN)cn6)(c6ccc(F)cc6F)C5)cc4)CC3)cc2)c1=O (stereo partly drawn) [ST0002],half-life at 10 µM,[1],0.78 ± 0.15 min
same,half-life at 10 µM,[2],14.9 ± 3.56 min
same,half-life at 10 µM,[3],1.12 ± 0.35 min
same,half-life at 10 µM,[4],18.5 ± 4.56 min
same,Total impurity increment in 30 days,[5],0.63%
same,"vaginal fungal load of mice, day 3",[6]; day 3,4.18 ± 0.22
same,"vaginal fungal load of mice, day 5",[6]; day 5,4.35 ± 0.41
same,"vaginal fungal load of mice, day 7",[6]; day 7,3.97 ± 0.47
same,"vaginal fungal load of mice, day 11",[6]; day 11,3.05 ± 0.27
same,responders at 20 mg/kg,"[7]; 24 h, read-out: survival rate of mice, day 1",100%
same,responders at 20 mg/kg,"[7]; 48 h, read-out: survival rate of mice, day 2",100%
same,responders at 20 mg/kg,"[7]; 72 h, read-out: survival rate of mice, day 3",100%
same,responders at 20 mg/kg,"[7]; 96 h, read-out: survival rate of mice, day 4",100%
same,responders at 20 mg/kg,"[7]; 120 h, read-out: survival rate of mice, day 5",100%
same,responders at 20 mg/kg,"[7]; 144 h, read-out: survival rate of mice, day 6",90%
same,responders at 20 mg/kg,"[7]; 168 h, read-out: survival rate of mice, day 7",90%
same,responders at 20 mg/kg,"[8]; 24 h, read-out: survival rate of mice, day 1, 20 mg/kg intragastric once daily for 5 days, day 1",100%
same,responders at 20 mg/kg,"[8]; 48 h, read-out: survival rate of mice, day 2, 20 mg/kg intragastric once daily for 5 days, day 2",100%
same,responders at 20 mg/kg,"[8]; 72 h, read-out: survival rate of mice, day 3, 20 mg/kg intragastric once daily for 5 days, day 3",90%
same,responders at 20 mg/kg,"[8]; 96 h, read-out: survival rate of mice, day 4, 20 mg/kg intragastric once daily for 5 days, day 4",80%
same,responders at 20 mg/kg,"[8]; 120 h, read-out: survival rate of mice, day 5, 20 mg/kg intragastric once daily for 5 days, day 5",80%
same,responders at 20 mg/kg,"[8]; 144 h, read-out: survival rate of mice, day 6, 20 mg/kg intragastric once daily for 5 days, day 6",70%
same,responders at 20 mg/kg,"[8]; 168 h, read-out: survival rate of mice, day 7, 20 mg/kg intragastric once daily for 5 days, day 7",70%
same,Amount of active fungi in cornea at day 7,[9],2.37 ± 0.49 10^3 CFU/ml
same,solubility at 30 min,[10],30.8 mg/mL
same,responders at 20 mg/kg,"[11]; 24 h, read-out: survival rate of mice, day 1, 20 mg/kg tail vein once daily for 5 days, day 1",100%
same,responders at 20 mg/kg,"[11]; 48 h, read-out: survival rate of mice, day 2, 20 mg/kg tail vein once daily for 5 days, day 2",100%
same,responders at 20 mg/kg,"[11]; 72 h, read-out: survival rate of mice, day 3, 20 mg/kg tail vein once daily for 5 days, day 3",100%
same,responders at 20 mg/kg,"[11]; 96 h, read-out: survival rate of mice, day 4, 20 mg/kg tail vein once daily for 5 days, day 4",100%
same,responders at 20 mg/kg,"[11]; 120 h, read-out: survival rate of mice, day 5, 20 mg/kg tail vein once daily for 5 days, day 5",90%
same,responders at 20 mg/kg,"[11]; 144 h, read-out: survival rate of mice, day 6, 20 mg/kg tail vein once daily for 5 days, day 6",90%
same,responders at 20 mg/kg,"[11]; 168 h, read-out: survival rate of mice, day 7, 20 mg/kg tail vein once daily for 5 days, day 7",80%
same,lung fungal load,"[11]; mouse lung tissue, seven days later, 20 mg/kg tail vein once daily for 5 days, mean ± SD",1.89 ± 0.22 10^4 CFU/ml

# — patent US10517867B2, “Posaconazole derivative, pharmaceutical composition and use thereof” (priority 2016, dated 2019)
